Assay results from patent US12263155B2, “Combinations of monoamine oxidase inhibitors and serotonin receptor agonists and their therapeutic use” (Remedi, Inc., priority 2022, dated 2025).
“And” between values parts separate entries of the source, which are not always exact repeats. Equal entries are not always repeated. “Also recorded” adds a separate entry of the source.

Biological target: T1, brain MAO-A (Rattus norvegicus, UniProt P21396)
T1 construct: prepared from brain homogenates of male Sprague-Dawley rats, served as the source of MAO-A enzymatic activity; from tissue
T1 sequence (P21396 1-526): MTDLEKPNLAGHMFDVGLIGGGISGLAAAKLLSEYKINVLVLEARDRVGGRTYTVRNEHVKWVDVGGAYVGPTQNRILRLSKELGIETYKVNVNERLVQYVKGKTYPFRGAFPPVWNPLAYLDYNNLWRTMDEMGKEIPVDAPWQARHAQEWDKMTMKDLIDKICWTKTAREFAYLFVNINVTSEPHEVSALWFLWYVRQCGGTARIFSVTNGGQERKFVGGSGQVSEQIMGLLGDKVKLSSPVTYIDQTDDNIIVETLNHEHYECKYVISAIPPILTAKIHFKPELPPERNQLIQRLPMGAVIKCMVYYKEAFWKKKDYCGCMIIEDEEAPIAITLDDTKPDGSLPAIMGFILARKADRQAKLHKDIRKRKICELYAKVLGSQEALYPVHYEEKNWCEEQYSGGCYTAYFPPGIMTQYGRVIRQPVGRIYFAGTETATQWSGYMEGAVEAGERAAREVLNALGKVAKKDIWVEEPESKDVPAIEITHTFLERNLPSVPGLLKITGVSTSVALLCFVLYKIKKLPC
Assay: Ex vivo brain MAO-A activity after oral CX157 in rats
Parameters: mean brain MAO-A activity (Avg.) / brain MAO-A activity, single experimental day: unit not given here
Settings: for mean brain MAO-A activity (Avg.): average of 4 days
Procedure: Methods: Sprague-Dawley male rats (average weight of 190 g) were segregated into three groups for testing of the effects of CX157 on brain MAO-A enzyme activity. The three groups consisted of animals who received either 1, 5, and 10 mg/kg of CX157. Each group consisted of twenty-four subjects. Test animals were administered the doses of CX157 orally, by the gavage method in accordance with White & Scates, Drug Dev Res. 1992; 25:191-199.
In each drug group, four animals were sacrificed at each time period (0, 2, 4, 8, 18 and 24 hours) on four different days following drug administration. Brains were removed from the animal, bisected, frozen immediately on dry ice and placed in a −80° C. freezer. Trunk blood was collected in tubes containing sodium heparin and centrifuged at 5000 rpm for 10 minutes at 4° C. to extract the plasma. The frozen brain samples were thawed, weighed, and homogenized (3:1 tissue weight/buffer volume) in 0.25 M sucrose, containing 50 mM KHPO4(pH 7.4), with a Teflon glass homogenizer. Deprenyl HCl (at a final concentration of 100 nM) was added to each sample of homogenate to block MAO-B enzyme activity. A volume of 400 μl of homogenate was pipetted into each assay tube. A 50 μl volume of 500 μM [^14C]-5HT (specific activity of 1.6 Curies/mmol) was added to each assay tube to give a final concentration of […]. Blank assay tubes (included to correct for nonspecific deamination of [^14C]-5HT) also contained 50 μl of RO-41-1049, while total activity assay tubes (specific and nonspecific deaminating activity) contained 50 μl of buffer. The final concentration of RO-41-1049 in the blank activity tubes was 100 μM. This yielded a total assay volume of 500 μl. All assays were incubated for 7.5 minutes at 37° C. The reaction was terminated by the addition of 500 μl of 2 M citric acid. The deaminated [^14C]-5HT metabolite was extracted into a liquid scintillation fluor mixture of xylene/ethyl acetate and 0.4% PPO and quantified using a liquid scintillation spectrometer.
The specific activity of MAO-A in each of the samples was determined by subtraction of the values obtained in the nonspecific tubes from those in the total activity tubes. Methylcellulose was prepared by weighing 17.5 grams in a weigh boat on a Mettler balance and poured into a 4 liter flask. Two liters of distilled water was added to the 4 liter flask. The mixture was placed on a stir plate/hot plate and stirred overnight (for 24 hours) until completely dissolved. After the methylcellulose dissolved, distilled water was added until the volume in the flask reached 3.5 liters. The CX157 was prepared in a 0.5% methylcellulose/Tween 80 mixture to obtain the following dosages 1, 5, and 10 mg/kg. Initially, 52 mg of CX157 was placed in a 7 ml amber vial. A volume of 52 μl of Tween 80 was added to the amber vial containing CX157. A volume of 5.2 ml of methylcellulose was added to this vial to yield a solution of 10 mg/ml; this solution was used to deliver the 10 mg/kg dose. For the 5 mg/kg dose, a 5 mg/ml solution was prepared as follows; a volume of 1 ml of 10 mg/ml stock was mixed with 1 ml of methylcellulose and sonicated until mixed thoroughly. For the 1 mg/kg dose, a 1:10 dilution of the stock dose of 10 mg/ml was performed by pipetting 0.5 ml of 10 mg/ml stock into an amber vial with an addition of 4.5 ml of methylcellulose followed by sonication to disperse the drug into solution. All drugs were then administered on a 1 ml/kg basis with an average volume of 200 μl.

O=S1(=O)c2ccc(F)cc2Oc2cc(OCC(F)(F)F)ccc21 [CX157, 3-fluoro-7(2,2,2-trifluorethoxy)phenoxathiine-10,10-dioxide]
brain MAO-A activity, % Baseline (1 mg/kg oral table, 0 h (baseline)): 100% | Mean brain MAO-A activity (1 mg/kg oral table, 0 h (pooled baseline, N=12)): 4002.0 DPM | mean brain MAO-A activity (Avg.) (1 mg/kg oral, 0 h): 3636 | Mean brain MAO-A activity (1 mg/kg oral, 2 h): 2777.5 DPM | brain MAO-A activity, % Baseline (1 mg/kg oral, 2 h): 69% | mean brain MAO-A activity (Avg.) (1 mg/kg oral, 2 h): 2778 | Mean brain MAO-A activity (1 mg/kg oral, 4 h): 3023.3 DPM | brain MAO-A activity, % Baseline (1 mg/kg oral, 4 h): 76% | mean brain MAO-A activity (Avg.) (1 mg/kg oral, 4 h): 3023 | Mean brain MAO-A activity (1 mg/kg oral, 8 h): 5120.8 DPM | brain MAO-A activity, % Baseline (1 mg/kg oral, 8 h): 128% | mean brain MAO-A activity (Avg.) (1 mg/kg oral, 8 h): 5121 | Mean brain MAO-A activity (1 mg/kg oral, 18 h): 3993.0 DPM | brain MAO-A activity, % Baseline (1 mg/kg oral, 18 h): 100% | brain MAO-A activity, single experimental day (1 mg/kg oral, 18 h, Day #1-#4, 1 mg/kg): 5071 and 5019 and 3071 and 2811 | mean brain MAO-A activity (Avg.) (1 mg/kg oral, 18 h): 3993 | Mean brain MAO-A activity (1 mg/kg oral, 24 h): 4883.0 DPM | brain MAO-A activity, % Baseline (1 mg/kg oral, 24 h): 122% | mean brain MAO-A activity (Avg.) (1 mg/kg oral, 24 h): 4883 | brain MAO-A activity, % Baseline (5 mg/kg oral table, 0 h (baseline)): 100% | Mean brain MAO-A activity (5 mg/kg oral table, 0 h (pooled baseline, N=12)): 4002.0 DPM | brain MAO-A activity, single experimental day (5 mg/kg oral, 0 h, Day #1-#4, 5 mg/kg): 5661 and 5499 and 3070 and 3687 | mean brain MAO-A activity (Avg.) (5 mg/kg oral, 0 h): 4479 | Mean brain MAO-A activity (5 mg/kg oral, 2 h): 1495.5 DPM | brain MAO-A activity, % Baseline (5 mg/kg oral, 2 h): 37% | mean brain MAO-A activity (Avg.) (5 mg/kg oral, 2 h): 1496 | Mean brain MAO-A activity (5 mg/kg oral, 4 h): 2298.0 DPM | brain MAO-A activity, % Baseline (5 mg/kg oral, 4 h): 57% | mean brain MAO-A activity (Avg.) (5 mg/kg oral, 4 h): 2298 | Mean brain MAO-A activity (5 mg/kg oral, 8 h): 1365.5 DPM | brain MAO-A activity, % Baseline (5 mg/kg oral, 8 h): 34% | mean brain MAO-A activity (Avg.) (5 mg/kg oral, 8 h): 1366 | Mean brain MAO-A activity (5 mg/kg oral, 18 h): 2818.5 DPM | brain MAO-A activity, % Baseline (5 mg/kg oral, 18 h): 70% | mean brain MAO-A activity (Avg.) (5 mg/kg oral, 18 h): 2818 | Mean brain MAO-A activity (5 mg/kg oral, 24 h): 3442.5 DPM | brain MAO-A activity, % Baseline (5 mg/kg oral, 24 h): 86% | mean brain MAO-A activity (Avg.) (5 mg/kg oral, 24 h): 3443 | brain MAO-A activity, % Baseline (10 mg/kg oral table, 0 h (baseline)): 100% | Mean brain MAO-A activity (10 mg/kg oral table, 0 h (pooled baseline, N=12)): 4002.0 DPM | mean brain MAO-A activity (Avg.) (10 mg/kg oral, 0 h): 3889 | Mean brain MAO-A activity (10 mg/kg oral, 2 h): 3805.8 DPM | brain MAO-A activity, % Baseline (10 mg/kg oral, 2 h): 95% | mean brain MAO-A activity (Avg.) (10 mg/kg oral, 2 h): 3806 | Mean brain MAO-A activity (10 mg/kg oral, 4 h): 1893.5 DPM | brain MAO-A activity, % Baseline (10 mg/kg oral, 4 h): 47% | mean brain MAO-A activity (Avg.) (10 mg/kg oral, 4 h): 1894 | Mean brain MAO-A activity (10 mg/kg oral, 8 h): 1034.5 DPM | brain MAO-A activity, % Baseline (10 mg/kg oral, 8 h): 26% | mean brain MAO-A activity (Avg.) (10 mg/kg oral, 8 h): 1035 | Mean brain MAO-A activity (10 mg/kg oral, 18 h): 2149.8 DPM | brain MAO-A activity, % Baseline (10 mg/kg oral, 18 h): 54% | mean brain MAO-A activity (Avg.) (10 mg/kg oral, 18 h): 2150 | Mean brain MAO-A activity (10 mg/kg oral, 24 h): 1711.8 DPM | brain MAO-A activity, % Baseline (10 mg/kg oral, 24 h): 43% | mean brain MAO-A activity (Avg.) (10 mg/kg oral, 24 h): 1712 | inhibition of brain MAO-A enzyme activity after oral administration (oral 1, 5, 10 mg/kg): dose and time dependent manner; also recorded: dose-dependent and reversible fashion
